Patent US20230123334A1, “AMINO LIPID COMPOUND, PREPARATION METHOD THEREFOR, AND APPLICATION THEREOF” (SHENZHEN SHENXIN BIOTECHNOLOGY CO., LTD., priority 2020, published 2023)

Test system: HEK293 cells
Assay: Preliminary screening as mRNA vectors, EGFP mRNA transfection of HEK293 cells
Format: cell-based
Conditions: EGFP mRNA 50 ng per well, 96-well plates; percentage of GFP fluorescent cells relative to total number of cells (Hoechst)
Protocol: Cell line: HEK293 cells (ATCC CRL-1573™)
Medium: DMEM supplemented with 10% fetal bovine serum (Invitrogen)
Screening: cell transfection on 96-well plates
Detection (readout): percentage of the number of GFP fluorescent cells relative to the total number of cells (the total number of cells was determined using nucleus dye Hoechst). Lipofectamine2000 (Invitrogen) was used as the positive control.
Method: the experimental method was basically the same with Example 4, and the mass of EGFP mRNA (TriLink) for transfection was 50 ng per well.

Row | Structure (SMILES) | Absolute mRNA transfection efficiency in HEK293 cells [%]
1 | CCCCCCCCCCCSc1nc(NCCCCCC)nc(NCCN2CCN(C)CC2)n1 [Compound D5S11N6] | 26.9
2 | CCCCCCCCCCCCCCCNc1nc(NCCN2CCN(C)CC2)nc(SCCCCCCCCCCCCCC)n1 [Compound D5S14N15] | 0.3
3 | CCCCCCCCCCCCCCCCCCNc1nc(NCCN2CCCC2)nc(SCCCCCCCCCCCCCCCCCC)n1 [Compound D3S18N18] | 0.1
4 | CCCCCCCCCCCCCCCCCCSc1nc(NCCN2CCCC2)nc(N(CCCCCCCCCCCC)CCCCCCCCCCCC)n1 [D3S18^2N12] | 0.1
5 | CCCCCCCCSc1nc(NCC2CCN(C)CC2)nc(SCCCCCC)n1 [Compound D10S6S8] | 6.6
6 | CCCCCCCCCCCCCNc1nc(NCCN2CCN(C)CC2)nc(SCCCCCCC)n1 [Compound D5S7N13] | 39.5
7 | CCCCCCCCCCCNc1nc(NCCN(C)C)nc(SCCCCCCC)n1 [Compound D1S7N11] | 5.8
8 | CCCCCCCCCCCCCCCCCCNc1nc(NCCCN(C)C)nc(SCCCCCCCCCCCCCCC)n1 [Compound D6S15N18] | 1.9
9 | CCCCCCCCCCCCCCCCSc1nc(NCCCCCCCCCCC)nc(NCCN2CCCCC2)n1 [Compound D4S16N11] | 0.5
10 | CCCCCCCCCCCCCCCCSc1nc(NCCCCCCCCCCCCCCC)nc(NCCCN2CCOCC2)n1 [Compound D8S16N15] | 0.0
11 | CCCCCCCCCNc1nc(NCCN2CCCC2)nc(SCCCCCCCC)n1 [Compound D3S8N9] | 3.2
12 | CCCCCCCCCCCCCCCCSc1nc(NCCCCCCCCC)nc(NCC2CCN(C)CC2)n1 [Compound D10S16N9] | 49.2
13 | CCCCCCCCSc1nc(NCCN2CCOCC2)nc(SCCCCCCCC)n1 [Compound D2S8S8] | 54.5
14 | CCCCCCCCCCCCCCCCCCSc1nc(NCCCCCCCCCCC)nc(NCCN2CCOCC2)n1 [Compound D2S18N11] | 0.5
15 | CCCCCCCCCCCCCCCCCCSc1nc(NCCCCCCCCCCCCC)nc(NCCCN2CCN(C)CC2)n1 [Compound D9S18N13] | 0.0
16 | CCCCCCCCNc1nc(NCCCN2CCOCC2)nc(SCCCCCCC)n1 [Compound D8S7N8] | 1.8
17 | CCCCCCCCCCCNc1nc(NCCN2CCN(C)CC2)nc(SCCCCCCCC)n1 [Compound D5S8N11] | 30.1
18 | CCCCCCCCCCCCSc1nc(NCCCCCC)nc(NCCCN(C)C)n1 [Compound D6S12N6] | 1.1
19 | CCCCCCCCCCCCCNc1nc(NCCCN2CCOCC2)nc(SCCCCCCCCCCCC)n1 [Compound D8S12N13] | 0.3
20 | CCCCCCCCCCCCCCCCNc1nc(NCCN2CCCC2)nc(SCCCCCCCCC)n1 [Compound D3S9N16] | 50.3
21 | CCCCCCCCCCCCSc1nc(NCCCN(C)C)nc(SCCCCCCCC)n1 [Compound D6S8S12] | 61.9
22 | CCCCCCCCCSc1nc(NCCCN(C)C)nc(SCCCCCCCC)n1 [Compound D6S8S9] | 59.9

Row | Structure (SMILES) | Absolute mRNA transfection efficiency in HEK293 cells [%]
23 | CCCCCCCCCCCCCCCSc1nc(NCCCCCCCC)nc(NCCCN2CCN(C)CC2)n1 [Compound D9S15N8] | 10.8
24 | CCCCCCCCSc1nc(NCCN2CCCC2)nc(SCCCCCCCC)n1 [Compound D3S8S8] | 26.1
25 | CCCCCCCCCCCCCCCSc1nc(NCCN2CCCC2)nc(SCCCCCC)n1 [Compound D3S6S15] | 12.0
26 | CCCCCCCCCCCCCCCCCCSc1nc(NCCCCCC)nc(NCCN2CCCCC2)n1 [Compound D4S18N6] | 1.5
27 | CCCCCCCCCCCNc1nc(NCCN2CCCCC2)nc(SCCCCCCC)n1 [Compound D4S7N11] | 1.0
28 | CCCCCCCCCSc1nc(NCCN(C)C)nc(SCCCCCCCC)n1 [Compound D1S8S9] | 7.4
29 | CCCCCCCCCCCCCNc1nc(NCCCN(C)C)nc(SCCCCCCCCCCC)n1 [Compound D6S11N13] | 10.0
30 | CCCCCCCCCCCCSc1nc(NCCCCCCCC)nc(NCCCN2CCOCC2)n1 [Compound D8S12N8] | 2.3
31 | CCCCCCCCCCCSc1nc(NCC2CCN(C)CC2)nc(SCCCCCCCC)n1 [Compound D10S8S11] | 67.0
32 | CCCCCCCCCCCCNc1nc(NCCCN2CCOCC2)nc(SCCCCCCCCCCC)n1 [Compound D8S11N12] | 1.0
33 | CCCCCCCCCCCCCCSc1nc(NCCN2CCOCC2)nc(SCCCCCCC)n1 [Compound D2S7S14] | 11.0
34 | CCCCCCCCCCCCSc1nc(NCCCN2CCN(C)CC2)nc(SCCCCCCCC)n1 [Compound D9S8S12] | 23.6
35 | CCCCCCCCCCCCCCCNc1nc(NCCN2CCCC2)nc(SCCCCCCC)n1 [Compound D3S7N15] | 33.7
36 | CCCCCCCCCCCCCCCCSc1nc(NCCCCCCCCCCC)nc(NCCCN2CCN(C)CC2)n1 [Compound D9S16N11] | 68.4
37 | CCCCCCCCCCCSc1nc(NCCCN2CCN(C)CC2)nc(SCCCCCCCC)n1 [Compound D9S8S11] | 97.6
38 | CCCCCCCCCCCCNc1nc(NCC2CCN(C)CC2)nc(SCCCCCCC)n1 [Compound D10S7N12] | 63.7
39 | CCCCCCCCCCCCCCCCCCNc1nc(NCCN(C)C)nc(SCCCCCCCCCC)n1 [Compound D1S10N18] | 4.8
40 | CCCCCCCCCCCCCCSc1nc(NCCCCCC)nc(NCCCN2CCN(C)CC2)n1 [Compound D9S14N6] | 27.2
41 | CCCCCCCCCCSc1nc(NCCCCCCCC)nc(NCCN2CCOCC2)n1 [Compound D2S10N8] | 0.5
42 | CCCCCCCCCCCCSc1nc(NCCCN2CCOCC2)nc(N(CCCCCCCCCCCC)CCCCCCCCCCCC)n1 [D8S12^2N12] | 3.4
43 | CCCCCCCCCCCCCCCCNc1nc(NCCN2CCCC2)nc(SCCCCCCCCCCCCCCC)n1 [Compound D3S15N16] | 7.6
44 | CCCCCCCCCCCCCCSc1nc(NCCN2CCCCC2)nc(N(CCCCCCCCCCCC)CCCCCCCCCCCC)n1 [D4S14^2N12] | 0.2

Row | Structure (SMILES) | Absolute mRNA transfection efficiency in HEK293 cells [%]
45 | CCCCCCCCCCSc1nc(NCCCCCCCCC)nc(NCCCN2CCN(C)CC2)n1 [Compound D9S10N9] | 10.5
46 | CCCCCCCCCCCCCCCCCCSc1nc(NCCCCCCCCC)nc(NCCN2CCCC2)n1 [Compound D3S18N9] | 72.3
47 | CCCCCCCCCCCSc1nc(NCCN2CCCC2)nc(SCCCCCCC)n1 [Compound D3S7S11] | 11.4
48 | CCCCCCCCNc1nc(NCCN2CCCCC2)nc(SCCCCCCCC)n1 [Compound D4S8N8] | 0.6
49 | CCCCCCCCCCCCCCCNc1nc(NCCN(CC)CC)nc(SCCCCCCCC)n1 [Compound D7S8N15] | 15.7
50 | CCCCCCCCCCCCCCCCNc1nc(NCCCN(C)C)nc(SCCCCCCCCCCCC)n1 [Compound D6S12N16] | 1.9
51 | CCCCCCCCCCCCCCCNc1nc(NCCN2CCN(C)CC2)nc(SCCCCCCCCCC)n1 [Compound D5S10N15] | 1.8
52 | CCCCCCCCCCCCCCCCCCNc1nc(NCCCN2CCOCC2)nc(SCCCCCCC)n1 [Compound D8S7N18] | 3.0
53 | CCCCCCCCCCCNc1nc(NCCN2CCCCC2)nc(SCCCCCCCCC)n1 [Compound D4S9N11] | 17.4
54 | CCCCCCCCCCCCSc1nc(NCCCCCCCCC)nc(NCCCN2CCN(C)CC2)n1 [Compound D9S12N9] | 25.6
55 | CCCCCCCCSc1nc(NCC2CCN(C)CC2)nc(SCCCCCCCC)n1 [Compound D10S8S8] | 50.8
56 | CCCCCCCCCCCCCCSc1nc(NCCCCCCCC)nc(NCCCN(C)C)n1 [Compound D6S14N8] | 80.6
57 | CCCCCCCCCCSc1nc(NCCCCCCCCC)nc(NCCN2CCCCC2)n1 [Compound D4S10N9] | 0.2
58 | CCCCCCCCCCCCCCCCCCNc1nc(NCCN(C)C)nc(SCCCCCCCCCCCCCCCCCC)n1 [Compound D1S18N18] | 0.0
59 | CCCCCCCCCCCSc1nc(NCCCCCC)nc(NCC2CCN(C)CC2)n1 [Compound D10S11N6] | 6.8
60 | CCCCCCCCNc1nc(NCCN2CCCC2)nc(SCCCCCC)n1 [Compound D3S6N8] | 0.0
61 | CCCCCCCCNc1nc(NCC2CCN(C)CC2)nc(SCCCCCCC)n1 [Compound D10S7N8] | 1.3
62 | CCCCCCCCCCCCSc1nc(NCCCN2CCOCC2)nc(SCCCCCCCC)n1 [Compound D8S8S12] | 67.9
63 | CCCCCCCCCCCCN(CCCCCCCCCCCC)c1nc(NCCN2CCCC2)nc(SCCCCCCCCC)n1 [D3S9^2N12] | 1.3
64 | CCCCCCCCCCCCSc1nc(NCCCN(C)C)nc(SCCCCCCC)n1 [Compound D6S7S12] | 93.8
65 | CCCCCCCCCCCCSc1nc(NCCCCCCCCCCC)nc(NCCN(C)C)n1 [Compound D1S12N11] | 2.6
66 | CCCCCCCCCCCCN(CCCCCCCCCCCC)c1nc(NCCCN2CCN(C)CC2)nc(SCCCCCCCCC)n1 [D9S9^2N12] | 0.3
